Experimental data: US10507215B2, “Compounds for the treatment of addiction” (Amygdala Neurosciences, Inc., priority 2011, dated 2019)

Experiments:
Type in all cases: in vivo
Male SD rats [1] = test: Rat nicotine self administration, acute treatment
Experimental: Male SD rats were trained to self administer i.v. nicotine (0.03 mg/kg/inj) daily (Monday to Friday) in standard operant chambers with retractable levers (MED Associates, Inc) as previously published (Levin et al., 2003; Levin et al., 2007). During the daily 45 min session, rats received 0.05 ml infusion of 0.03 mg/kg/infusion of nicotine every time the active lever was pressed. A cue light and tone turned on for 0.5 sec together with the activation of a pump that delivered the nicotine solution. Daily sessions were run for at least 10 days before the initiation of drug testing. Solutions of compounds of Example 2 and Example 5 were prepared fresh daily in Formulation 2B: 25% PEG400/5% Vit E TPGS/1% SLS/69% water with 0.5% Methocel) for oral dosing. Compound of Example 2 doses were administered in a counterbalanced design for testing 1 hr before each nicotine session. Every rat received all drug doses and vehicle in a randomly assigned order. The oral drug administrations were made twice per week.
Compound of Example 5 was tested in a study using 4 independent groups. Each group received either oral vehicle or 1 of the 3 doses of compound of Example 5 (5, 10 or 30 mg-eq/kg). […] The 5 mg/kg dose was ineffective.

[2] = system: male Sprague Dawley (SD) rats; test: Rat cocaine cue reinstatement; settings: for inhibition of cocaine cue reinstatement vs vehicle: 1 hr before session
Experimental: Training of male Sprague Dawley (SD) rats had 3 separate stages. First, during self administration, animals were trained to lever press for cocaine with presentation of concomitant cues associated with drug delivery. Rats that reached criteria for addiction were included in the study. Afterward, during cue extinction, cocaine-cue dependent behavior was extinguished. Lastly, during cocaine cue reinstatement, the effect of compounds was tested on lever presses upon cue presentation (FIG. 2).
Rats were trained to self administer i.v. cocaine (0.35 mg/kg/injection) daily (Monday to Friday) in standard operant chambers with retractable levers (Coulbourn Instruments, PA). During the daily 2 hr session, rats received a 0.05 ml infusion of 0.35 mg/kg cocaine every time the active lever was pressed. A cue light and tone turned on for 2 sec together with activation of a pump that delivered the cocaine solution. Rats were required to maintain an infusion rate of ≥20+ per day for at least 10 days before being moved to extinction training.
During extinction sessions lever presses no longer produced cocaine infusion and cue light/tone presentation was absent. Rats received a maximum of 15 extinction sessions.
On the next day after reaching extinction criteria, rats were treated orally with vehicle (Formulation 2B: 25% PEG400/5% Vit E TPGS/1% SLS/69% water with 0.5% Methocel) or drug (compound of Example 2 or compound of Example 5) before the cue reinstatement session. Cue reinstatement began with a tone and cue light. This 2 hr session was identical to the self-administration session (cue light and tone present upon active lever press) except that no cocaine was delivered. The number of active lever presses was compared to extinction lever responding. This is considered a measure of reinstatement. The next day, rats were returned to extinction sessions for at least 2 or 3 more sessions. Rats then received a second and last reinstatement session with an opposite treatment to the one received on the first reinstatement session (vehicle or drug treatment). […] The light/tone presentation triggers this response and it is interpreted as a measure of reinstatement even though cocaine is not available.

Male SD rats [3] = test: Rat nicotine self administration, 7-day chronic treatment; settings: 7 consecutive days
Experimental: Upon completion of the acute compound of Example 5 treatment study, the same animals were used to test the effect of 7-day chronic oral administration of compound of Example 5 in the nicotine self administration model. Rats were treated orally with compound of Example 5 (5, 10 or 30 mg-eq/kg) or vehicle 1 hr before nicotine self administration session for 7 consecutive days. […] Similar to the acute treatment, the 5 mg-eq/kg dose was ineffective (FIG. 7). […] Animals in nicotine self administration studies had to reach pre defined criteria (e.g. rat strain, minimum number of nicotine infusions, consistent baseline nicotine self administration throughout the study, patent iv catheters, etc.) to be included in analysis.

Compound | effect on number of nicotine infusions (Male SD rats [1]; 1 mg/kg oral) | effect on number of nicotine infusions (Male SD rats [1]; 5 mg/kg oral) | effect on cocaine cue reinstatement ([2]; 2.5 mg-eq/kg oral, lowest dose tested) | inhibition of cocaine cue reinstatement vs vehicle ([2]; 2.5 mg/kg eq oral, N.S.) | inhibition of cocaine cue reinstatement vs vehicle ([2]; 5 mg-eq/kg oral) | inhibition of cocaine cue reinstatement vs vehicle ([2]; 10 mg-eq/kg oral) | inhibition of cocaine cue reinstatement vs vehicle ([2]; 30 mg-eq/kg oral) | effect on number of nicotine infusions (Male SD rats [3]; 5 mg-eq/kg oral) | inhibition of number of nicotine infusions vs vehicle (Male SD rats [3]; 10 mg-eq/kg oral) | inhibition of number of nicotine infusions vs vehicle (Male SD rats [3]; 30 mg-eq/kg oral) | effect on number of nicotine infusions (Male SD rats [1]; 5 mg/kg dose oral, independent groups) | inhibition of number of nicotine infusions vs vehicle (Male SD rats [1]; 10 mg-eq/kg oral, independent groups) | inhibition of number of nicotine infusions vs vehicle (Male SD rats [1]; 30 mg-eq/kg oral, independent groups)
O=C(NCc1ccc(-c2cc[nH]c(=O)c2)cc1)c1c(Cl)cccc1Cl [Compound 2, 2,6-dichloro-N-[4-(2-oxo-1,2-dihydro-pyridin-4-yl)-benzyl]-benzamide] | without effect | without effect |  |  |  |  |  |  |  |  |  |  | 
O=C(NCc1ccc(-c2ccn(COP(=O)(O)O)c(=O)c2)cc1)c1c(Cl)cccc1Cl [Compound 14, phosphoric acid mono-(4-{4-[(2,6-dichloro-benzoylamino)-methyl]-phenyl}-2-oxo-2H-pyridin-1-ylmethyl) ester] |  |  | not significantly different from vehicle | 30% | 59% | 55% | 50% | ineffective | 48% | 62% | ineffective | 51% | 68%
